Molecules are shown by their SMILES.

For test [1], the system named is HEK293T cells. Briefly: Live cell microscopy apoptosis assay (caspase 3/7 dye). Particulars: DHA 75 μM with MBCD 300 μM or CBD 6.25 μM. The test is classed as cell-based. The procedure:
In order to gain further insight into the sensitivity of CBD treated cells to 25-hydroxy cholesterol, the present inventors repeated the apoptosis assay in SK-N-BE(2) and HEK293T cells with combinatorial 25-hydroxy cholesterol/CBD stimulation using sublethal doses of 25-hydroxy cholesterol (15 μg/ml) and CBD (20 μM) in the presence or absence of either the chemical inhibitor of cholesterol transport (U18666A, 10 μM) or cholesterol storage (VULM 1457, 5 μM).
FRAP experiments reveal that DHA and CBD have opposing effects on the lateral diffusion of fluorescently labelled cholesterol in synthetic membranes. Although this implies that CBD increases lipid order and that DHA decreases lipid order, it remains unclear how relevant these biophysical effects of CBD and DHA are to cellular physiology. As a result, the present inventors sought to determine whether CBD and DHA have opposing effects on cells. To this end, the present inventors repeated the live cell apoptosis assays in cells exposed to increasing doses of DHA to determine how DHA affects cell death.

Test [2] has as its system SK-N-BE(2) cells. Put plainly: Lipidomics of total lipid abundance. The class given is cell-based, human. An excerpt: To investigate the effect of CBD on cholesterol storage, the present inventors performed follow up experiments to determine the total cellular amounts of small molecule markers of cholesterol storage as a function of CBD exposure. The inventors detected accumulation of multiple species of cholesteryl esters with diverse chain length and degree of unsaturation in the acyl chain (FIG. 4A).
Since this esterification requires acyl CoA reactants, the inventors surveyed our dataset for evidence of fatty acid utilization.
Thus, the present inventors found multiple lines of evidence consistent with activation of cholesterol esterification in the CBD response. To further support the claim that CBD elicits cholesterol storage, the present inventors used live cell confocal microscopy of SK-N-BE(2) cells stained with both fluorescent cholesterol (22-NBD-Cholesterol) and the lipid droplet dye nile red (FIG. 4E) to quantify the number and size of lipid droplets. […] Altogether, these combined experiments highlight that the CBD response in cells includes activation of cholesterol esterification and storage.
Extraction of cholesterol, precursors, free fatty acids, cholesteryl esters, and phospho lipids were performed in the following manner. SK-N-BE(2) cells in 10 cm dishes were washed with 10 mL PBS twice and then cells were scraped and pelleted at 400 rcf for 2 minutes. Cell pellets were resuspended in 100% methanol at 4° C. and sonicate at 70% power in 10 pulses, 5 seconds on/5 seconds off. The resulting lysate was rotated for 60 minutes at room temperature, followed by centrifugation for 20 min at 4° C. (16,100 rcf). Subcellular fractionation of organelles from intact SK-N-BE(2) cells was done in the following manner to assess subcellular CBD distribution. Cells in 10 cm culture dishes were harvest by washing twice with 10 mL PBS at room temperature, followed by trypsinization using a cell culture grade Trypsin/EDTA solution (ThermoFisher). Trypsinized cells were quenched by addition of 2 mL 10% FBS containing DMEM and cells were pelleted by centrifugation for 2 min at 4° C. (200 rcf). Cell pellets were wash one time with 10 mL PBS, and resuspended in 1 mL Tween20 Buffer (1×PBS, 0.05% Tween20, 5 mM EDTA). This lysate was subjected to mechanical disruption using a 1 mL glass Dounce homogenizer, 10 full passes at 4° C. Nuclei was pelleted from homogenate by centrifugation for 5 min at 4° C. (2,000 rcf). Supernatant was separated and insoluble ER membranes were pelleted by centrifugation for 10 min at 4° C. (4,000 rcf). Supernatant was separated and insoluble plasma membranes were pelleted by centrifugation for 10 min at 4° C. (16,000 rcf). […]

As to `C=C(C)[C@@H]1CCC(C)=C[C@H]1c1c(O)cc(CCCCC)cc1O` [CBD, cannabidiol], the “effect on DHA induced apoptosis” value in test [1] was “completely cancel the apoptotic effects”. Besides, in test [2] (CBD 20 μM vs vehicle), the cholesteryl esters entry is recorded as “accumulation”, the “free fatty acid levels” value is reported as “reduced” and the free phospholipid head-groups result is “accumulation”. For the same compound, in test [2] (CBD treated vs vehicle treated cells), the “phosphatidylcholine and phosphatidylethanolamine species abundance” value was “reduced abundance”.

These data come from patent US20210244686A1, “Novel Systems And Methods For The Therapeutic Use of Cannabinoids or Cannabinoid Analogs to Increase The Lipid Order of Cholesterol Containing Cell Membranes” (The Regents of the University of Colorado a body corporate, priority 2018, published 2021).
